Data: patent publication US20250241908A1 (SHANGHAI YAO YUAN BIOTECHNOLOGY CO., LTD., priority 2022, published 2025)
Where two headings read alike, the source gives them in different places. Values belong to the compound of their own block, whether it stands above or below them.

Legend:
[1] = system: ALPK1-TIFA-IL1β pathway in THP-1-derived macrophage cells; assay: PMA-differentiated THP-1 cell based assay; conditions: for IC50: Homo sapiens, PMA-differentiated THP-1 cells stimulated with ALPK1 agonist
Procedure: We evaluated the ability of ALPK1 inhibitors to suppress IL1β, IL8 and TNF-α levels following ALPK1 activation in THP-1-derived macrophage cells. […] Inhibitory activity is measured as suppression of IL1β.
THP-1 cells were cultured in RPMI 1640 containing 10% heat inactivated FBS, penicillin (100 units/ml) and streptomycin (100 μg/ml), and maintained in a humidified incubator with 95% atmospheric air and 5% CO2. Prior to the experiment, THP-1 cells were seeded into 24-well flat-bottom plate at a cell density of 40,0000 cells/well. Phorbol myristate acetate (PMA; 50 ng/ml) was used to treat THP-1 cells for 48 h, and then THP-1-derived macrophages were obtained. […] Total RNA was extracted using the TRIzol method and reverse-transcribed. The mRNA expression levels IL1β, IL8 and TNF-α were detected by SYBR green gene expression assays. Expression levels of mRNA were normalized to GAPDH. Relative expression was calculated by comparing to vehicle control and the values were plotted as fold induction. All activity results were expressed as the mean of triplicate determinations. IC50 was determined from dose response curve using Prism Software, version 6.00 from GraphPad Software.

[2] = system: ALPK1-dependent gene expression in PBMC; assay: Inhibition of ALPK1 in PBMC cells; assay type: in vivo, Sprague-Dawley (SD) rats; conditions: SD rats, 10 mpk oral, ALPK1 agonist ip 2 h later, blood 3 h after agonist; compared with vehicle group
Procedure: We examined whether ALPK1 inhibitors can suppress ALPK1-dependent activation of a set of such genes in rats. […] PBMCs were collected and gene expression analyzed, as described in more detail below.
After 3 hours administration of the ALPK1 agonist, the blood was collected from heart, and PBMC were extracted from each group.

[3] = target: ALPK1 (Homo sapiens (Human), UniProt Q96QP1); assay: ALPK1 in vitro kinase assay (HTRF, TIFA phosphorylation); assay type: biochemical; conditions: HTRF of HA-tagged TIFA; ALPK1 2 nM; ADP-Heptose as activator
Sequence of ALPK1 (Q96QP1 whole entry): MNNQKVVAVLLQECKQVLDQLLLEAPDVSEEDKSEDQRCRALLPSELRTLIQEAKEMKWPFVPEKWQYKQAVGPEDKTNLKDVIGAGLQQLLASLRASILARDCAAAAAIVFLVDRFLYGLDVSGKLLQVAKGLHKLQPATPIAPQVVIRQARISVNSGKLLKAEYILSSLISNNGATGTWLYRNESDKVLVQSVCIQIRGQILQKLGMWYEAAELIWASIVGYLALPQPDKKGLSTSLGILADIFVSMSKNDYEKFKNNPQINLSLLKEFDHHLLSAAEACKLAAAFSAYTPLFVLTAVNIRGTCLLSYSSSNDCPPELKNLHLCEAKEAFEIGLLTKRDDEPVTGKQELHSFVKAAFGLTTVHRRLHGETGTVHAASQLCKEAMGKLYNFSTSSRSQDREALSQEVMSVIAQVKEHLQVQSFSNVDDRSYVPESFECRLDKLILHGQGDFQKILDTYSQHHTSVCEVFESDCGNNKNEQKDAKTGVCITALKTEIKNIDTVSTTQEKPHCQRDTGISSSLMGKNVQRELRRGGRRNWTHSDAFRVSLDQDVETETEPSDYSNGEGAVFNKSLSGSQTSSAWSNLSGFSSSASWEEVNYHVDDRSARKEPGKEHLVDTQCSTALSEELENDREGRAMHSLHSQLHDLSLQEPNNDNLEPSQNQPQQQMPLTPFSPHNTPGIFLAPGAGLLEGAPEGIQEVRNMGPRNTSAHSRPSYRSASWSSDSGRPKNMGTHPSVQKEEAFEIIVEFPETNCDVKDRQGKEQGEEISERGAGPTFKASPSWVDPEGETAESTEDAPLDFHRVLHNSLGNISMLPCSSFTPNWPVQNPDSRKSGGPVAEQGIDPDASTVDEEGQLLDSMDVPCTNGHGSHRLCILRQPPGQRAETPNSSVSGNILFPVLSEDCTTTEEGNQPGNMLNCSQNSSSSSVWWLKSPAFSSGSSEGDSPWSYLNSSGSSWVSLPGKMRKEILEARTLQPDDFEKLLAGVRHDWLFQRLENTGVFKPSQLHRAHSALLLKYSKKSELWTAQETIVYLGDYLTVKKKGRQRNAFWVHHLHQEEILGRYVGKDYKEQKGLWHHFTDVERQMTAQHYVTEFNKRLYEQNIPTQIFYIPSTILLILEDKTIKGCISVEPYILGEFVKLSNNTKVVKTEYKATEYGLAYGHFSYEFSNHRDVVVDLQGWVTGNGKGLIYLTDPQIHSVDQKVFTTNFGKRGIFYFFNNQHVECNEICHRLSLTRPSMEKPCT

[4] = system: OSS-induced inflammatory signaling in ECs (HUVECs); assay: Oscillatory shear stress (OSS) in HUVECs; assay type: cell-based, human; conditions: oscillatory flow 0.5±4 dyn/cm2 for 6 hours, 300 nM
Procedure: For flow experiments, confluent monolayers of HUVECs were seeded on glass slides, Static condition (ST) without any treatment served as control and a parallel plate flow system was used to impose oscillatory flow (0.5±4 dyn/cm2) for 6 hours.

[5] = system: carotid artery of Guinea Pig after PCL surgery; assay: Guinea pig, high fat diet, Partial Carotid Ligation model; assay type: in vivo; conditions: 6 weeks high fat diet
[6] = system: ALPK1-TIFA pathway target gene mRNA in HASMC; assay: Primary Human Aorta Smooth Muscle Cell-based assay; conditions: for IC50: Homo sapiens, HASMC stimulated with ALPK1 agonist
Procedure: Primary Human Aorta smooth muscle Cells (HASMC) grow in Smooth muscle Cell Basal Media supplemented with Smooth Muscle Cell Growth Kit components (PriMed-iCell-002, iCell), provide an ideal cell system to propagate HASMC.
Briefly, primary HASMC were seeded at a density of 25000 cells per well to a collagen coated 24-well culture plate. […] Total RNA was extracted using the RNeasy mini kit method and reverse-transcribed. The mRNA expression levels of target genes were detected by SYBR green gene expression assays. Expression levels of mRNA were normalized to HPRT. Relative expression was calculated by comparing to vehicle control and the values were plotted as fold induction. All activity results were expressed as the mean of triplicate determinations. IC50 was determined from dose response curve using Prism Software, version 6.00 from GraphPad Software.

[7] = system: innate immunity gene expression following ALPK1 activation; assay: Inhibition of ALPK1 in coronary artery, aorta, and heart muscle; assay type: in vivo, Sprague-Dawley (SD) rats; conditions: SD rats, 40 mpk oral, ALPK1 agonist ip 2 h later, tissue 3 h after agonist; compared with vehicle group
[8] = system: PCL induced atherosclerosis in ApoE knockout mice; assay: ApoE mice, high fat diet, Partial Carotid Ligation atherosclerosis model; assay type: in vivo, mouse; conditions: high fat diet, 1, 3, 9 mg/kg oral once daily for 2 weeks from PCL surgery
Description: To determine the efficacy of ALPK1 inhibitor in atherosclerosis, we treat the ApoE mice with High Fat Diet (Research Diet, D12109C), and perform Partial Carotid Ligation (PCL) surgery on left Carotid artery as described previously (Zhang, Chenghu et al. “Coupling of Integrin a5 to Annexin A2 by Flow Drives Endothelial Activation.” Circulation research vol. 127, 8 (2020): 1074-1090) to accelerate the development of atherosclerosis. […] Two weeks later, the carotid artery of ligated side was collected, the contralateral carotid from vehicle group were served as control. The carotid was fixed and sectioned. The wall thicknesses were quantified by software.

Structure (SMILES): C#C[C@@](C)(c1ccc(Cl)cc1)c1csc(NC(=O)NCCO)n1 [Compound A176, (S)-1-(4-(2-(4-chlorophenyl)but-3-yn-2-yl)thiazol-2-yl)-3-(2-hydroxyethyl)urea]
inhibition of IL1β induced by ALPK1 activation ([1]; THP-1-derived macrophages): potent inhibition
PBMC mRNA expression for CCL-2, CCL-7, CXCL-1, CXCL-10, CXCL-11 and IL-1β [2]: significant decreases

Structure (SMILES): COc1ccc(C(C)(C)c2csc(NC(=O)c3ccc(N4CCNCC4C)cc3)n2)cc1 (centres unmarked) [Compound B014]
IC50 [3]: 300 nM

Structure (SMILES): COc1ccc(C(C)(C)c2csc(NC(=O)c3ccc(N4CCNCC4)cn3)n2)cc1 [Compound B044, N-(4-(2-(4-methoxyphenyl)propan-2-yl)thiazol-2-yl)-5-(piperazin-1-yl)picolinamide]
IC50 [3]: 213 nM

IC50 ([6]; read-out: IC50 ICAM-1 mRNA): 47 nM
IC50 ([6]; read-out: IC50 IL8 mRNA): 110 nM
IC50 ([6]; read-out: IC50 TIFA mRNA): 115 nM
IC50 ([6]; read-out: IC50 VCAM-1 mRNA): 38 nM
Structure (SMILES): C#C[C@@](C)(c1ccc(Cl)cc1)c1csc(NC(=O)c2c(F)cc(N3CCNCC3)cc2F)n1 [Compound C008, (S)-N-(4-(2-(4-chlorophenyl)but-3-yn-2-yl)thiazol-2-yl)-2,6-difluoro-4-(piperazin-1-yl)benzamide]
OSS-induced inflammatory signaling in ECs (E-selectin and inflammatory cytokine mRNA) [4]: reduced
fibrosis area percentage of the carotid artery (Masson staining) [5]: decreased
liver CYP7A1 expression [5]: elevated CYP7A1 expression dose dependently
total plasma cholesterol level [5]: dose dependently decreased
wall thickness of the carotid artery (Masson staining) [5]: decreased
IL8, TIFA, ICAM-1, VCAM-1 mRNA levels induced by ALPK1 activation ([6]; HASMC): dose dependently inhibited
IC50 ([1]; read-out: IL-8 mRNA IC50): 6 nM
IC50 ([1]; read-out: TNF-α mRNA IC50): 9 nM
inhibition of IL1β induced by ALPK1 activation ([1]; THP-1-derived macrophages): potent inhibition
inhibition of IL8 and TNF-α mRNA induced by ALPK1 activation ([1]; THP-1-derived macrophages): potent inhibition
mRNA expression of aorta IL-6, CXCL-1, CXCL-10, CCL-2 [7]: significantly decreased
mRNA expression of cardiac muscle TNF-α, IL-1b, IL-6, CXCL-1, CXCL-10, CXCL-11, CCL-2 and CCL-5 [7]: significantly decreased
mRNA expression of coronary artery TNF-α, CXCL-1, CCL-2 and CCL-7 [7]: significantly decreased
PBMC mRNA expression for CCL-7, CXCL-1, CXCL-10, CXCL-11, IL-1β, TNF-α and IL-6 [2]: significant decreases
PCL induced atherosclerosis (carotid artery wall thickness) [8]: dose dependently inhibited
